The text below walks through data of PMC5218480 (PLoS ONE, 2017).

The experiment concerns MV-4-11 cells. Nature of the experiment: Gene expression microarray analysis (Affymetrix PrimeView) and GSEA. To be noted: ProbeSet 11721969_s_at; LIST B. In kind it is cell-based, human. Details: RFU PODN (11730768_x_at) / Fold change /veh PODN (11730768_x_at) / RFU LINC00158 (11744669_a_at) / Fold change /veh LINC00158 (11744669_a_at) / RFU DUSP10 (11751237_a_at) / Fold change /veh DUSP10 (11751237_a_at) / RFU ID3 (11757404_x_at) / Fold change /veh ID3 (11757404_x_at) / RFU PLEKHG5 (11737974_s_at) / Fold change /veh PLEKHG5 (11737974_s_at) / RFU LRRC4B (11730491_at) / Fold change /veh LRRC4B (11730491_at) / RFU GIMAP4 (11747438_a_at) / Fold change /veh GIMAP4 (11747438_a_at) / RFU KRT8 (11758183_x_at) / Fold change /veh KRT8 (11758183_x_at) / RFU CNN1 (11734310_a_at) / Fold change /veh CNN1 (11734310_a_at) / RFU VPS37D (11726825_at) / Fold change /veh VPS37D (11726825_at) / RFU C10orf10 (11716522_x_at) / Fold change /veh C10orf10 (11716522_x_at) / RFU KIR2DL2 /// KIR2DL4 /// KIR2DL5A /// KIR2DL5B /// KIR2DS1 /// KIR2DS2 /// KIR2DS3 /// KIR2DS4 /// KIR3DL3 /// KIR3DL3 /// KIR3DS1 (11738374_at) / Fold change /veh KIR2DL2 /// KIR2DL4 /// KIR2DL5A /// KIR2DL5B /// KIR2DS1 /// KIR2DS2 /// KIR2DS3 /// KIR2DS4 /// KIR3DL3 /// KIR3DL3 /// KIR3DS1 (11738374_at) / RFU C1QL1 (11718748_at) / Fold change /veh C1QL1 (11718748_at) / RFU TMPRSS4 (11747572_a_at) / Fold change /veh TMPRSS4 (11747572_a_at) / RFU HAMP (11756126_x_at) / Fold change /veh HAMP (11756126_x_at) / RFU RNFT2 (11725882_a_at) / Fold change /veh RNFT2 (11725882_a_at) / RFU NR4A2 (11747474_a_at) / Fold change /veh NR4A2 (11747474_a_at) / RFU ABCC12 (11746883_a_at) / Fold change /veh ABCC12 (11746883_a_at) / RFU TMEM136 (11760407_x_at) / Fold change /veh TMEM136 (11760407_x_at) / RFU CLDN22 /// WWC2 (11732394_at) / Fold change /veh CLDN22 /// WWC2 (11732394_at) / RFU HLA-DPB1 (11760878_x_at) / Fold change /veh HLA-DPB1 (11760878_x_at) / RFU SPINT1 (11716480_a_at) / Fold change /veh SPINT1 (11716480_a_at) / RFU GAP43 (11754022_s_at) / Fold change /veh GAP43 (11754022_s_at) / RFU A4GNT (11735810_at) / Fold change /veh A4GNT (11735810_at) / RFU PRB3 (11715151_x_at) / Fold change /veh PRB3 (11715151_x_at) / RFU TUBB4B (11761932_at) / Fold change /veh TUBB4B (11761932_at) / RFU CAPN14 (11732068_a_at) / Fold change /veh CAPN14 (11732068_a_at) / RFU TMCC2 (11721928_a_at) / Fold change /veh TMCC2 (11721928_a_at) / RFU IRGQ (11745062_a_at) / Fold change /veh IRGQ (11745062_a_at) / RFU FAM174B (11720279_a_at) / Fold change /veh FAM174B (11720279_a_at) / RFU TMPRSS4 (11748680_a_at) / Fold change /veh TMPRSS4 (11748680_a_at) / RFU FAM212B (11763350_a_at) / Fold change /veh FAM212B (11763350_a_at) / RFU PLEKHG5 (11743358_a_at) / Fold change /veh PLEKHG5 (11743358_a_at) / RFU ZSCAN30 (11745921_a_at) / Fold change /veh ZSCAN30 (11745921_a_at) / RFU CMKLR1 (11741424_a_at) / Fold change /veh CMKLR1 (11741424_a_at) / RFU LOC101060620 /// MAPK8IP1 (11723275_at) / Fold change /veh LOC101060620 /// MAPK8IP1 (11723275_at) / RFU SPTSSB (11747773_x_at) / Fold change /veh SPTSSB (11747773_x_at) / RFU PRSS12 (11739890_at) / Fold change /veh PRSS12 (11739890_at) / RFU BIN1 (11741810_x_at) / Fold change /veh BIN1 (11741810_x_at) / RFU WNT11 (11732464_a_at) / Fold change /veh WNT11 (11732464_a_at) / RFU C10orf10 (11716521_a_at) / Fold change /veh C10orf10 (11716521_a_at) / RFU C5orf56 (11738089_at) / Fold change /veh C5orf56 (11738089_at) / RFU CYB561 (11721691_x_at) / Fold change /veh CYB561 (11721691_x_at) / RFU ANKRD19P (11752326_a_at) / Fold change /veh ANKRD19P (11752326_a_at) / RFU OR2T12 /// OR2T33 /// OR2T8 (11738714_s_at) / Fold change /veh OR2T12 /// OR2T33 /// OR2T8 (11738714_s_at) / RFU VCAN (11748164_a_at) / Fold change /veh VCAN (11748164_a_at) / RFU JSRP1 (11732532_at) / Fold change /veh JSRP1 (11732532_at) / RFU KRTAP10-11 (11738290_x_at) / Fold change /veh KRTAP10-11 (11738290_x_at) / RFU MYO3A (11730013_a_at) / Fold change /veh MYO3A (11730013_a_at) / RFU EBF3 (11725865_a_at) / Fold change /veh EBF3 (11725865_a_at) / RFU CAMK2N1 (11719241_x_at) / Fold change /veh CAMK2N1 (11719241_x_at) / RFU C5orf56 (11738088_a_at) / Fold change /veh C5orf56 (11738088_a_at) / RFU OLFML3 (11715873_a_at) / Fold change /veh OLFML3 (11715873_a_at) / RFU LOC100653217 /// NTM (11731650_a_at) / Fold change /veh LOC100653217 /// NTM (11731650_a_at) / RFU MAPK11 (11762145_a_at) / Fold change /veh MAPK11 (11762145_a_at) / RFU FIZ1 (11724087_x_at) / Fold change /veh FIZ1 (11724087_x_at) / RFU OASL (11726364_x_at) / Fold change /veh OASL (11726364_x_at) / RFU SOX15 (11748057_x_at) / Fold change /veh SOX15 (11748057_x_at) / RFU CD79A (11719716_a_at) / Fold change /veh CD79A (11719716_a_at) / RFU HIST1H1D (11736915_at) / Fold change /veh HIST1H1D (11736915_at) / RFU CASKIN2 (11723855_a_at) / Fold change /veh CASKIN2 (11723855_a_at) / RFU LOC730098 (11760151_x_at) / Fold change /veh LOC730098 (11760151_x_at) / RFU OR4N2 (11742367_at) / Fold change /veh OR4N2 (11742367_at) / RFU PRRT2 (11749266_a_at) / Fold change /veh PRRT2 (11749266_a_at) / RFU SNX32 (11753110_a_at) / Fold change /veh SNX32 (11753110_a_at) / RFU CDHR5 (11726645_a_at) / Fold change /veh CDHR5 (11726645_a_at) / RFU RCAN1 (11760418_a_at) / Fold change /veh RCAN1 (11760418_a_at) / RFU FAM167A (11723789_a_at) / Fold change /veh FAM167A (11723789_a_at) / RFU FAM26E (11764081_at) / Fold change /veh FAM26E (11764081_at) / RFU ISYNA1 (11749810_s_at) / Fold change /veh ISYNA1 (11749810_s_at) / RFU ACY1 (11761880_at) / Fold change /veh ACY1 (11761880_at) / RFU 11764098_at / Fold change /veh 11764098_at / RFU SAMD14 (11745864_x_at) / Fold change /veh SAMD14 (11745864_x_at) / RFU NPB (11741838_a_at) / Fold change /veh NPB (11741838_a_at) / RFU TMPRSS6 (11731388_a_at) / Fold change /veh TMPRSS6 (11731388_a_at) / RFU KRTAP10-2 (11738614_at) / Fold change /veh KRTAP10-2 (11738614_at) / RFU ARHGAP8 /// PRR5-ARHGAP8 (11727945_x_at) / Fold change /veh ARHGAP8 /// PRR5-ARHGAP8 (11727945_x_at) / RFU KRTAP5-7 /// NADSYN1 (11734609_at) / Fold change /veh KRTAP5-7 /// NADSYN1 (11734609_at) / RFU RASL12 (11751679_a_at) / Fold change /veh RASL12 (11751679_a_at) / RFU CDKN2B (11736163_a_at) / Fold change /veh CDKN2B (11736163_a_at) / RFU PRF1 (11729649_at) / Fold change /veh PRF1 (11729649_at) / RFU, ZNF638 /// ZNF638-IT1 / Fold change vs veh, ZNF638 /// ZNF638-IT1 / RFU, PANK3 / Fold change vs veh, PANK3 / RFU, SH3YL1 / Fold change vs veh, SH3YL1 / RFU, ZEB2 / Fold change vs veh, ZEB2 / RFU, NRIP1 / Fold change vs veh, NRIP1 / RFU, PTTG1IP / Fold change vs veh, PTTG1IP / RFU, CAPN2 / Fold change vs veh, CAPN2 / RFU, MED14 / Fold change vs veh, MED14 / RFU, SNORA58 / Fold change vs veh, SNORA58 / RFU, C1orf63 / Fold change vs veh, C1orf63 / RFU, LRRFIP1 / Fold change vs veh, LRRFIP1 / RFU, NDUFAF7 / Fold change vs veh, NDUFAF7 / RFU, SLC12A2 / Fold change vs veh, SLC12A2 / RFU, IBTK / Fold change vs veh, IBTK / RFU, ESF1 / Fold change vs veh, ESF1 / Fold change vs veh, TMEM50B / RFU, TAOK1 / Fold change vs veh, TAOK1 / RFU, ACBD3 / Fold change vs veh, ACBD3 / RFU, TMA16 / Fold change vs veh, TMA16 / RFU, RWDD3 / Fold change vs veh, RWDD3 / RFU, BCAT1 / Fold change vs veh, BCAT1 / RFU, EDEM3 / Fold change vs veh, EDEM3 / RFU, TMEM33 / Fold change vs veh, TMEM33 / RFU, WDR75 / Fold change vs veh, WDR75 / RFU, AHCTF1 / Fold change vs veh, AHCTF1 / RFU, TFRC / Fold change vs veh, TFRC / RFU, ZDHHC17 / Fold change vs veh, ZDHHC17 / RFU, NOM1 / Fold change vs veh, NOM1 / RFU, ARL8B / Fold change vs veh, ARL8B / RFU, ZBTB11 / Fold change vs veh, ZBTB11 / RFU, TAMM41 / Fold change vs veh, TAMM41 / RFU, KIAA1704 /// LOC100996395 / Fold change vs veh, KIAA1704 /// LOC100996395 / RFU, ING1 / Fold change vs veh, ING1 / RFU, TRMT61B / Fold change vs veh, TRMT61B / RFU, FUBP3 / Fold change vs veh, FUBP3 / RFU, TP53 / Fold change vs veh, TP53 / RFU, TNKS2 / Fold change vs veh, TNKS2 / RFU, ZFP14 / Fold change vs veh, ZFP14 / RFU, ACTR2 / Fold change vs veh, ACTR2 / RFU, PPP3R1 / Fold change vs veh, PPP3R1 / RFU, PIK3R1 / Fold change vs veh, PIK3R1 / RFU, HNRNPA1 / Fold change vs veh, HNRNPA1 / RFU, RNF170 / Fold change vs veh, RNF170 / RFU, ZNF28 / Fold change vs veh, ZNF28 / RFU, RNGTT / Fold change vs veh, RNGTT / RFU, OGT / Fold change vs veh, OGT / RFU, BRD1 / Fold change vs veh, BRD1 / RFU, MARS / Fold change vs veh, MARS / RFU, ZNF655 / Fold change vs veh, ZNF655 / RFU, FAHD1 / Fold change vs veh, FAHD1 / RFU, BDP1 / Fold change vs veh, BDP1 / RFU, LRRCC1 / Fold change vs veh, LRRCC1 / RFU, ARID1A / Fold change vs veh, ARID1A / RFU, ZNF146 / Fold change vs veh, ZNF146 / RFU, ZNF330 / Fold change vs veh, ZNF330 / RFU, GPN3 / Fold change vs veh, GPN3 / RFU, C9orf123 / Fold change vs veh, C9orf123 / RFU, N4BP2L2 / Fold change vs veh, N4BP2L2 / RFU, ARFIP1 / Fold change vs veh, ARFIP1 / RFU, FAM179B / Fold change vs veh, FAM179B / RFU, BCL10 / Fold change vs veh, BCL10 / RFU, UHRF1BP1L / Fold change vs veh, UHRF1BP1L / RFU, BET1 / Fold change vs veh, BET1 / RFU, CNOT2 / Fold change vs veh, CNOT2 / RFU, ZNF268 / Fold change vs veh, ZNF268 / Fold change vs veh, ZNF507 / RFU, DGCR2 / Fold change vs veh, DGCR2 / RFU, WDSUB1 / Fold change vs veh, WDSUB1 / Fold change vs veh, HSP90B1 /// MIR3652 / RFU, ADSS / Fold change vs veh, ADSS / RFU, GK / Fold change vs veh, GK / RFU, ZNF148 / Fold change vs veh, ZNF148 / RFU, TAF9 / Fold change vs veh, TAF9 / RFU, SLC1A5 / Fold change vs veh, SLC1A5 / RFU, SLMO2 / Fold change vs veh, SLMO2 / RFU, ABCC4 / Fold change vs veh, ABCC4 / RFU, LOC101060439 /// RAP1B / Fold change vs veh, LOC101060439 /// RAP1B / RFU, RFX7 / Fold change vs veh, RFX7 / RFU, GTPBP10 / Fold change vs veh, GTPBP10 / RFU, CNEP1R1 / Fold change vs veh, CNEP1R1 / RFU, BIVM-ERCC5 /// ERCC5 / Fold change vs veh, BIVM-ERCC5 /// ERCC5 / RFU, ILF3 / Fold change vs veh, ILF3 / RFU 11762660_at / Fold change /veh 11762660_at / RFU VCAN (11757783_s_at) / Fold change /veh VCAN (11757783_s_at) / RFU DDX43 (11728927_at) / Fold change /veh DDX43 (11728927_at) / RFU KRT8 (11758188_x_at) / Fold change /veh KRT8 (11758188_x_at) / RFU NKD1 (11759106_at) / Fold change /veh NKD1 (11759106_at) / RFU SRD5A1 (11742802_a_at) / Fold change /veh SRD5A1 (11742802_a_at) / RFU TPSAB1 /// TPSB2 (11721975_s_at) / Fold change /veh TPSAB1 /// TPSB2 (11721975_s_at) / RFU GSTM3 (11746129_a_at) / Fold change /veh GSTM3 (11746129_a_at) / RFU IL23R (11737362_x_at) / Fold change /veh IL23R (11737362_x_at) / RFU TMEM51 (11727254_a_at) / Fold change /veh TMEM51 (11727254_a_at) / RFU PIWIL2 (11732686_x_at) / Fold change /veh PIWIL2 (11732686_x_at) / RFU ORM1 (11744905_x_at) / Fold change /veh ORM1 (11744905_x_at) / RFU CCDC152 (11743942_at) / Fold change /veh CCDC152 (11743942_at) / RFU ECM1 (11717891_a_at) / Fold change /veh ECM1 (11717891_a_at) / RFU IL23R (11748794_a_at) / Fold change /veh IL23R (11748794_a_at) / RFU TNFAIP8L3 (11732012_x_at) / Fold change /veh TNFAIP8L3 (11732012_x_at) / RFU MBOAT4 (11741988_at) / Fold change /veh MBOAT4 (11741988_at) / RFU 11764193_at / Fold change /veh 11764193_at / RFU TMEM53 (11763286_at) / Fold change /veh TMEM53 (11763286_at) / RFU MAGEB2 (11727129_at) / Fold change /veh MAGEB2 (11727129_at) / RFU TMEM200A (11744735_a_at) / Fold change /veh TMEM200A (11744735_a_at) / RFU CCDC152 (11751479_a_at) / Fold change /veh CCDC152 (11751479_a_at) / RFU FAM211A (11726209_a_at) / Fold change /veh FAM211A (11726209_a_at) / RFU RGS16 (11746705_a_at) / Fold change /veh RGS16 (11746705_a_at) / RFU VCAN (11755009_s_at) / Fold change /veh VCAN (11755009_s_at) / RFU RHOB (11743442_s_at) / Fold change /veh RHOB (11743442_s_at) / RFU RGS16 (11720943_a_at) / Fold change /veh RGS16 (11720943_a_at) / RFU RGS16 (11720944_at) / Fold change /veh RGS16 (11720944_at) / RFU, VPS4B / Fold change vs veh, VPS4B / RFU, CREB1 / Fold change vs veh, CREB1 / RFU, DNAJC13 / Fold change vs veh, DNAJC13 / RFU, GNAQ / Fold change vs veh, GNAQ / RFU, CDK5R1 / Fold change vs veh, CDK5R1 / RFU, ZRANB3 / Fold change vs veh, ZRANB3 / RFU, CUL4A / Fold change vs veh, CUL4A / RFU, CCNY / Fold change vs veh, CCNY / RFU, UFL1 / Fold change vs veh, UFL1 / RFU, COG3 / Fold change vs veh, COG3 / RFU, DIAPH2 / Fold change vs veh, DIAPH2 / RFU, SKA2 / Fold change vs veh, SKA2 / RFU, AFF3 / Fold change vs veh, AFF3 / RFU, LMF1 / Fold change vs veh, LMF1 / RFU, IPO11 / Fold change vs veh, IPO11 / RFU, DFFB / Fold change vs veh, DFFB / RFU, FOXP1 / Fold change vs veh, FOXP1 / RFU, CARD8 / Fold change vs veh, CARD8 / RFU, STRN3 / Fold change vs veh, STRN3 / RFU, ADK / Fold change vs veh, ADK / RFU, RASSF2 / Fold change vs veh, RASSF2 / RFU, WIPF1 / Fold change vs veh, WIPF1 / RFU, LARP1B / Fold change vs veh, LARP1B / RFU, RASA1 / Fold change vs veh, RASA1 / RFU, RB1 / Fold change vs veh, RB1 / RFU, PPFIA1 / Fold change vs veh, PPFIA1 / RFU, MAT2A / Fold change vs veh, MAT2A / RFU, CCT5 / Fold change vs veh, CCT5 / RFU, WDR92 / Fold change vs veh, WDR92 / RFU, CUX1 / Fold change vs veh, CUX1 / RFU, TTC7A / Fold change vs veh, TTC7A / RFU, TMEM135 / Fold change vs veh, TMEM135 / RFU, DEPTOR / Fold change vs veh, DEPTOR / RFU, CPM / Fold change vs veh, CPM / RFU, DNAJB6 / Fold change vs veh, DNAJB6 / RFU, CACNA2D3 / Fold change vs veh, CACNA2D3 / RFU, DTX4 / Fold change vs veh, DTX4 / RFU, TFCP2 / Fold change vs veh, TFCP2 / RFU, GMCL1 /// GMCL1P1 / Fold change vs veh, GMCL1 /// GMCL1P1 / RFU, AEBP2 / Fold change vs veh, AEBP2 / RFU, SNHG1 /// SNORD22 /// SNORD25 /// SNORD26 /// SNORD27 /// SNORD28 /// SNORD29 /// SNORD31 / Fold change vs veh, SNHG1 /// SNORD22 /// SNORD25 /// SNORD26 /// SNORD27 /// SNORD28 /// SNORD29 /// SNORD31 / Fold change (Aza/veh), C12orf56 (ProbeSet 11735607_a_at) / Fold change (ACY-1035/veh), C12orf56 (ProbeSet 11735607_a_at) / Fold change (Aza/veh), FGFR1OP (ProbeSet 11751329_s_at) / Fold change (ACY-1035/veh), FGFR1OP (ProbeSet 11751329_s_at) / Fold change (Aza/veh), VPS36 (ProbeSet 11739960_a_at) / Fold change (ACY-1035/veh), VPS36 (ProbeSet 11739960_a_at) / RFU SYPL1 (11715823_x_at) / Fold change /veh SYPL1 (11715823_x_at) / RFU IGFBP7 (11715501_s_at) / Fold change /veh IGFBP7 (11715501_s_at) / RFU REEP3 (11722064_at) / Fold change /veh REEP3 (11722064_at) / RFU IGLL1 (11728026_x_at) / Fold change /veh IGLL1 (11728026_x_at): dose or concentration left out as unconfirmed.

Regarding `Nc1ncn([C@@H]2O[C@H](CO)[C@@H](O)[C@H]2O)c(=O)n1` [azacitidine], the “RFU, BDP1” value is on record as 496.27 RFU.
